According to ChEMBL document CHEMBL1201862, “PubChem BioAssay data set” (2004):
Counter-ions that a name gives are not always drawn.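 Cultured in 96-well plates, cells were exposed to test compound for 48 hours across five concentrations. The concentration for 50% growth inhibition is given as GI50.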 Activity calls are given as the source filed them. No stated cut-off is given here; in the data, active = GI50 up to about 1.1 µM and inactive = higher. Residues, ends and D or L forms follow the SMILES beside them. *: point of attachment. Tfa = O=C(C(F)(F)F)*

Experiments:
Assay in all cases: NCI-60 cell line screen, 48 h
786-0 = test system: 786-0
A549 = test system: A549
ACHN = test system: ACHN
BT-549 = test system: BT-549
CAKI-1 = test system: CAKI-1
CCRF-CEM = test system: CCRF-CEM
COLO 205 = test system: COLO 205
DU-145 = test system: DU-145
EKVX = test system: EKVX
HCC 2998 = test system: HCC 2998
HCT-116 = test system: HCT-116
HCT-15 = test system: HCT-15
HL-60 = test system: HL-60
HOP-62 = test system: HOP-62
HOP-92 = test system: HOP-92
HT-29 = test system: HT-29
Hs-578T = test system: Hs-578T
IGROV-1 = test system: IGROV-1
K562 = test system: K562
KM12 = test system: KM12
LOX IMVI = test system: LOX IMVI
M14 = test system: M14
MCF7 = test system: MCF7
MDA-MB-231 = test system: MDA-MB-231
MDA-MB-435 = test system: MDA-MB-435
MDA-N = test system: MDA-N
MOLT-4 = test system: MOLT-4
Malme-3M = test system: Malme-3M
NCI-H226 = test system: NCI-H226
NCI-H23 = test system: NCI-H23
NCI-H460 = test system: NCI-H460
NCI-H522 = test system: NCI-H522
NCI/ADR-RES = test system: NCI/ADR-RES
OVCAR-3 = test system: OVCAR-3
OVCAR-4 = test system: OVCAR-4
OVCAR-5 = test system: OVCAR-5
OVCAR-8 = test system: OVCAR-8
PC-3 = test system: PC-3
RPMI-8226 = test system: RPMI-8226
RXF 393 = test system: RXF 393
SF-268 = test system: SF-268
SF-295 = test system: SF-295
SF-539 = test system: SF-539
SK-MEL-28 = test system: SK-MEL-28
SK-MEL-2 = test system: SK-MEL-2
SK-MEL-5 = test system: SK-MEL-5
SK-OV-3 = test system: SK-OV-3
SN12C = test system: SN12C
SNB-19 = test system: SNB-19
SNB-75 = test system: SNB-75
SR = test system: SR
SW-620 = test system: SW-620
T47D = test system: T47D
TK-10 = test system: TK-10
U-251 = test system: U-251
UACC-257 = test system: UACC-257
UACC-62 = test system: UACC-62
UO-31 = test system: UO-31

CCOC(=O)CC[C@@H](NC(=O)c1ccc(NCc2ccc3nc(OC)c(OC)nc3c2)cc1)C(=O)OCC
GI50 (786-0): 59.4 µM (inactive)
GI50 (A549): > 100 µM (inactive)
GI50 (ACHN): 22.3 µM (inactive)
GI50 (BT-549): > 67.3 µM (inactive)
GI50 (CAKI-1): > 83.9 µM (inactive)
GI50 (CCRF-CEM): 32.6 µM (inactive)
GI50 (COLO 205): 28.6 µM (inactive)
GI50 (DU-145): 58.2 µM (inactive)
GI50 (EKVX): > 78.3 µM (inactive)
GI50 (HCC 2998): 33.6 µM (inactive)
GI50 (HCT-116): > 100 µM (inactive)
GI50 (HCT-15): > 87.3 µM
GI50 (HL-60): 14.8 µM (inactive)
GI50 (HOP-62): > 77.4 µM (inactive)
GI50 (HOP-92): 11.4 µM (inactive)
GI50 (HT-29): > 72.8 µM (inactive)
GI50 (Hs-578T): > 29.9 µM (inactive)
GI50 (IGROV-1): 22.5 µM (inactive)
GI50 (K562): 46.8 µM (inactive)
GI50 (KM12): > 100 µM (inactive)
GI50 (LOX IMVI): 38.9 µM (inactive)
GI50 (M14): 16.3 µM (inactive)
GI50 (MCF7): 25.5 µM (inactive)
GI50 (MDA-MB-231): 36.1 µM (inactive)
GI50 (MDA-MB-435): 31.4 µM (inactive)
GI50 (MDA-N): 30.1 µM (inactive)
GI50 (MOLT-4): 16.6 µM (inactive)
GI50 (Malme-3M): 19.5 µM (inactive)
GI50 (NCI-H226): 58.7 µM (inactive)
GI50 (NCI-H23): > 83.2 µM (inactive)
GI50 (NCI-H460): 20.6 µM (inactive)
GI50 (NCI-H522): 19.9 µM (inactive)
GI50 (NCI/ADR-RES): > 100 µM (inactive)
GI50 (OVCAR-3): 17.3 µM (inactive)
GI50 (OVCAR-4): 38.9 µM (inactive)
GI50 (OVCAR-5): > 100 µM (inactive)
GI50 (OVCAR-8): > 100 µM (inactive)
GI50 (PC-3): 56.8 µM (inactive)
GI50 (RPMI-8226): > 94.8 µM (inactive)
GI50 (RXF 393): 25.5 µM (inactive)
GI50 (SF-268): 33.4 µM (inactive)
GI50 (SF-295): 70.8 µM (inactive)
GI50 (SF-539): 18.5 µM (inactive)
GI50 (SK-MEL-28): 16.1 µM (inactive)
GI50 (SK-MEL-2): 18.1 µM (inactive)
GI50 (SK-MEL-5): 13.6 µM (inactive)
GI50 (SK-OV-3): > 100 µM (inactive)
GI50 (SN12C): 52 µM (inactive)
GI50 (SNB-19): > 100 µM (inactive)
GI50 (SNB-75): 14.5 µM (inactive)
GI50 (SR): 25.1 µM (inactive)
GI50 (SW-620): 80.7 µM (inactive)
GI50 (T47D): 19.1 µM (inactive)
GI50 (TK-10): 60.5 µM (inactive)
GI50 (U-251): > 100 µM (inactive)
GI50 (UACC-257): 15.7 µM (inactive)
GI50 (UACC-62): 15.5 µM (inactive)
GI50 (UO-31): 26.5 µM (inactive)

O=C(O)CC(NC(=O)C(F)(F)F)C(=O)NC(Cc1ccc(O)cc1)C(=O)O (stereo not drawn) (Tfa-Asp-Tyr-OH; configuration not given here)
GI50 (786-0): > 50 µM (inactive)
GI50 (A549): > 50 µM (inactive)
GI50 (ACHN): > 50 µM (inactive)
GI50 (BT-549): > 50 µM (inactive)
GI50 (CAKI-1): > 50 µM (inactive)
GI50 (COLO 205): > 50 µM (inactive)
GI50 (DU-145): > 50 µM (inactive)
GI50 (EKVX): > 50 µM (inactive)
GI50 (HCC 2998): > 50 µM (inactive)
GI50 (HCT-15): > 50 µM
GI50 (HOP-62): > 50 µM (inactive)
GI50 (HOP-92): > 50 µM (inactive)
GI50 (HT-29): > 50 µM (inactive)
GI50 (Hs-578T): > 50 µM (inactive)
GI50 (IGROV-1): > 50 µM (inactive)
GI50 (K562): > 50 µM (inactive)
GI50 (KM12): > 50 µM (inactive)
GI50 (M14): > 50 µM (inactive)
GI50 (MCF7): > 50 µM (inactive)
GI50 (MDA-MB-231): > 50 µM (inactive)
GI50 (MDA-MB-435): > 50 µM (inactive)
GI50 (MDA-N): > 50 µM (inactive)
GI50 (MOLT-4): > 50 µM (inactive)
GI50 (Malme-3M): > 50 µM (inactive)
GI50 (NCI-H226): > 50 µM (inactive)
GI50 (NCI-H23): > 50 µM (inactive)
GI50 (NCI-H460): > 50 µM (inactive)
GI50 (NCI-H522): > 50 µM (inactive)
GI50 (NCI/ADR-RES): > 50 µM (inactive)
GI50 (OVCAR-3): > 50 µM (inactive)
GI50 (OVCAR-5): > 50 µM (inactive)
GI50 (OVCAR-8): > 50 µM (inactive)
GI50 (PC-3): > 50 µM (inactive)
GI50 (RPMI-8226): > 50 µM (inactive)
GI50 (RXF 393): > 50 µM (inactive)
GI50 (SF-268): > 50 µM (inactive)
GI50 (SF-295): > 50 µM (inactive)
GI50 (SF-539): > 50 µM (inactive)
GI50 (SK-MEL-28): > 50 µM (inactive)
GI50 (SK-MEL-2): > 50 µM (inactive)
GI50 (SK-MEL-5): > 50 µM (inactive)
GI50 (SK-OV-3): > 50 µM (inactive)
GI50 (SN12C): > 50 µM (inactive)
GI50 (SNB-19): > 50 µM (inactive)
GI50 (SNB-75): > 50 µM (inactive)
GI50 (SR): > 50 µM (inactive)
GI50 (SW-620): > 50 µM (inactive)
GI50 (T47D): > 50 µM (inactive)
GI50 (TK-10): > 50 µM (inactive)
GI50 (U-251): > 50 µM (inactive)
GI50 (UACC-257): > 50 µM (inactive)
GI50 (UACC-62): > 50 µM (inactive)
GI50 (UO-31): > 50 µM (inactive)
